Data on 1 compound can be found in patent publication US20100135905A1, “ASSESSMENT OF CANCER SUSCEPTIBILITY TO MOLECULAR TARGETED THERAPY BY USE OF RECOMBINANT PEPTIDES” (priority 2004, published 2010).

SMILES strings stand for the structures.

This test relates to GL261 tumors. Put plainly: TUNEL stain of intracranial GL261 glioblastoma tumors. Type of test: in vivo, C57BL/6 mice. Here is the method: The response of cancer cells within the intracranial glioblastoma tumor model, GL261, was also tested in mice. GL261 tumors were implanted into the brains of C57BL/6 mice. After tumor formation (seven days later), mice were treated with GLEEVEC®, 4 Gy or both GLEEVEC® and 4 Gy. Tumors were sectioned and assayed with TUNEL stain to identify apoptotic nuclei. […] The pharmacodynamic response (such as apoptosis) in tumors treated with GLEEVEC® correlated with tumor growth delay.

Consider `Cc1ccc(NC(=O)c2ccc(CN3CCN(C)CC3)cc2)cc1Nc1nccc(-c2cccnc2)n1` [GLEEVEC®], for which the “Glioma nuclei stained positive with TUNEL stain” value (TKI alone) worked out at 5%. Also, for the setting “TKI followed by irradiation (4 Gy)”, the “Apoptotic nuclei (TUNEL)” value amounted to 18%.
